Source: patent publication US20250381269A1, “BISPECIFIC ANTIBODY BINDING EGFR AND B7-H3” (FORTVITA BIOLOGICS (SINGAPORE) PTE. LTD., priority 2022, published 2025)
pEC50, pIC50: −log10 of the molar value.

Columns and labels:
[1] = test system: H322; experiment: Proliferation inhibition experiment, H322 (NSCLC); format: cell-based; details: EGFR WT, KRAS WT
Method: • (1) NSCLC: plated at 1500-2500 cells/100 μL in a 96-well low-adsorption plate (Corning, CLS7007-24EA) for 3D cell culture, in which the following cell lines and specific amounts were used: • NSCLC: 2000 cells/100 μL/well • NCI-H292: Cell Bank of the Chinese Academy of Sciences, SCSP-582 • NCI-H322: Cobioer, CBP60134 • NCI-H1650: ATCC, CRL-5883 • NCI-H1975: ATCC, CRL-5908 • SK-MES-1: CoBioer, CBP60152 • NCI-H1703: ATCC, HTB-43 • PC9+hB7H3: constructed as described above • CRC and HNSCC: plated at 1500-2000 cells/100 μL in a 96-well white-bottom plate (NUNC, 136101) for 2D cell culture, in which the following cell lines and specific amounts were used: • CRC: 1500 cells/100 μL/well • CCK-81: CoBioer, CBP60581 • HT-55: CoBioer, CBP60012 • H508: CoBioer, CBP60795 • LS180: CoBioer, CBP60034 • HNSCC: 1500 cells/100 μL/well • TE-1: CoBioer, CBP60655 • Colo680: CoBioer, CBP60452. (2) The antibody molecules prepared in advance by dilution were added to the corresponding cell well plate, mixed well, and cultured in an incubator at 37° C. with 5% CO2 for 5 days. • (3) After 5 days of continuous culture for proliferation inhibition assay, the Cell-Titer reagent (Promega, G7572) prepared in advance was added to cell wells, the plate was left to stand at room temperature for 15-25 min in the dark, and then CRC and HNSCC cells were directly detected by a multimode microplate reader (Molecular Devices, Spectra MAXi3). • (4) NSCLC: Cell-Titer and the cell mixture were transferred to a 96-well white-bottom plate (NUNC, 136101) and detected by a multimode microplate reader (Molecular Devices, Spectra MAXi3).

[2] = test system: SK-MES-1; format: cell-based, human; details: EGFR Amplification, KRAS WT, huPBMC:target 50:1, 8 h, LDH
Method: (§1) • (1) A CTS medium (Gibco, A3021002) was preheated at 37° C. huPBMC (Miaotong Biotechnology, PB 100C-W) was quickly thawed in a water bath, and then the cells were added slowly to 8 mL of CTS medium (containing 1% DNase). • (2) The mixture was centrifuged at 300 g for 8 min. The supernatant was removed, and the cells were resuspended in 30 mL of CTS (containing 10 μL of DNase), transferred to a T75 flask, and incubated in an incubator at 37° C. overnight. • (3) The suspension cells cultured overnight were taken and centrifuged at 300 g for 8 min. The supernatant was removed, and the cell density was adjusted with CTS. According to an effector/target ratio of effector cells (huPBMCs) to target cells (tumor cells in Table 5) of 50:1, huPBMCs and the tumor cells prepared in advance (Target: huPBMC=1.5E4/7.5E5 cells/well/100 μL) were plated in a 96-well low-adsorption plate (Corning. CLS7007-24EA). • (4) The diluted antibody drug was added to the corresponding cell well plate and cultured at 37° C. with 5% CO2 for 8 h. • (5) The mixture was centrifuged at 300 g for 5 min. 50 μL of the supernatant was transferred to a 96-well transparent flat-bottom plate ((NUNC, 136101), 50 μL of the LDH reagent (Promega, G1780) prepared in advance was added to the corresponding well plate, and the plate was left to stand at room temperature for 15-30 min in the dark. • (6) 50 μL LDH stop solution (Promega, G1780) was taken and detected by a multimode microplate reader (Molecular Devices, Spectra MAXi3) at 490 nm for readings.

[3] = test system: H322; format: cell-based, human; details: EGFR WT, KRAS WT, huPBMC:target 50:1, 8 h, LDH
Method: as §1

[4] = test system: H1650; format: cell-based, human; details: EGFR Amplification Del19, KRAS WT, huPBMC:target 50:1, 8 h, LDH
Method: as §1

[5] = test system: H292; format: cell-based, human; details: EGFR WT, KRAS WT, huPBMC:target 50:1, 8 h, LDH
Method: as §1

[6] = test system: H1975; format: cell-based, human; details: EGFR L858R T790M, KRAS WT, huPBMC:target 50:1, 8 h, LDH
Method: as §1

[7] = test system: H1703; experiment: ADCC report assay, H1703; format: cell-based; details: EGFR Amplification, KRAS WT, effector/target 10:1, 20 h
Method: In the ADCC report assay, ADCC effector cells ((Promega, G7102)) are engineered cells in which FcRIIIa (V158) receptor is overexpressed into Jurkat T cells, which rapidly respond to ADCC through the NFAT-RE driving element within the Jurkat T cells.
• (1) Tumor cells (cell lines listed in Table 3) and ADCC effector cells (Promega, G7102) were mixed well (1.5E4 cells: 1.5E5 cells/well/100 μL (1.5E5: 1.5E6 cells/mL)) according to an effector/target ratio (10:1), and added to a 96-well white plate (NUNC, 136101). • (2) The antibody molecules prepared in advance by dilution were added to the corresponding cell well plates, mixed well, and cultured at 37° C. with 5% CO2 for 20 h. • (3) The Bio-glo reagent (Promega, G755B) prepared in advance was added to the cell well plate, the plate was left to stand at room temperature for 10-15 min in the dark, and then the cells were detected by a multimode microplate reader (Molecular Devices, Spectra MAXi3).

## amivantamab [JNJ372]
[1]
  Max inhibition (%) Mean ± SD: 38.2 ± 6.7%
[1]; 3D culture, 5 days
  pIC50: 8.09
[2]
  pEC50: 10.14
[3]
  pEC50: 10.49
[4]
  pEC50: 9.37
[5]
  pEC50: 11.40
[6]
  pEC50: 9.93
[7]
  pEC50: 9.92

## zalutumumab [Zalu mAb]
[1]
  Max inhibition (%) Mean ± SD: 39.9 ± 0.8%
[2]
  pEC50: 10.85
[3]
  pEC50: 10.85
[4]
  pEC50: 9.24
[5]
  pEC50: 12.00
[6]
  pEC50: 9.93
[7]
  pEC50: 11.15
